Measured values as given in patent US5387592A, “Substituted benzoxazole, benzthiazole, and benzimidazole derivatives as angiotensin II antagonists” (Imperial Chemical Industries PLC, priority 1991, dated 1995).
Counter-ions that a name gives are not always drawn.

Molecular target: T1, AII receptors (Cavia porcellus, UniProt Q9WV26)
T1 construct: the source of cell surface membranes is the guinea pig adrenal gland; from tissue; host or cells: guinea pig adrenal gland, cell surface membrane fraction
T1 sequence (Q9WV26 1-359): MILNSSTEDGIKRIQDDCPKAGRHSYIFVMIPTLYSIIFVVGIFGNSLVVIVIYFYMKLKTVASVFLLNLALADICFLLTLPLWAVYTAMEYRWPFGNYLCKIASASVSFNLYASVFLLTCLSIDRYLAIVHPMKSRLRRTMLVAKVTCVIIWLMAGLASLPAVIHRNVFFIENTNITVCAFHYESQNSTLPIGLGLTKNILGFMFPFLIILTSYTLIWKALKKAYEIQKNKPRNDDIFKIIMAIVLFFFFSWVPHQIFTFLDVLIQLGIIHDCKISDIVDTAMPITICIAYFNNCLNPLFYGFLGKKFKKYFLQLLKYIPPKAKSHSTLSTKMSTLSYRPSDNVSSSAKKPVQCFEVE
Test: Test A: displacement of radiolabelled AII binding from guinea pig adrenal gland membrane fraction
Details: guinea pig adrenal gland membranes; read-out: IC50 (concentration for 50% displacement of radiolabelled AII binding)
Description: This in vitro procedure involves the incubation of the test compound initially at a concentration of 100 micromolar (or less) in a buffered mixture containing fixed concentrations of radiolabelled AII and a cell surface membrane fraction prepared from a suitable angiotensin target tissue. In this test, the source of cell surface membranes is the guinea pig adrenal gland which is well known to respond to AII. Interaction of the radiolabelled AII with its receptors (assessed as radiolabel bound to the particulate membrane fraction following removal of unbound radiolabel by a rapid filtration procedure such as is standard in such studies) is antagonized by compounds which also bind to the membrane receptor sites and the degree of antagonism (observed in the test as displacement of membrane-bound radioactivity) is determined readily by comparing the receptor-bound radioactivity in the presence of the test compound at the specified test concentration with a control value determined in the absence of the test compound. Using this procedure compounds showing at least 50% displacement of radiolabelled AII binding at a concentration of 10^-4 M are retested at lower concentrations to determine their potency. […]

IC50: 200 nM
Compound: CCc1cc(OCc2ccc3oc(-c4ccccc4-c4nnn[nH]4)nc3c2)c2c(n1)CCCC2 [Example 3, 2-ethyl-5,6,7,8-tetrahydro-4-[(2-(2-(1H-tetrazol-5-yl)phenyl)benzoxazol-5-yl)methoxy]quinoline hydrochloride]
